System: Hepatotoxicity
Assay: Literature-mined public compounds from Greene et al multi-species hepatotoxicity modelling dataset

Compound | Hepatotoxicity
CC1(C)C(C=C(Cl)Cl)C1C(=O)OCc1cccc(Oc2ccccc2)c1 (stereo not drawn) [PERMETHRIN] | NE: No evidence of hepatotoxicity in any species
COc1cccc2c1C(=O)c1c(O)c3c(c(O)c1C2=O)C[C@@](O)(C(=O)CO)C[C@@H]3O[C@H]1C[C@H](N)[C@@H](O)[C@H](C)O1 [EPIRUBICIN] | NE: No evidence of hepatotoxicity in any species
Cl.Nc1ccc(/N=N/c2ccccc2)c(N)n1 [PHENAZOPYRIDINE HYDROCHLORIDE] | HH: Evidence of human hepatotoxicity
CC1=C(CC(=O)O)c2cc(F)ccc2/C1=C\c1ccc([S+](C)[O-])cc1 (stereo not drawn) | HH: Evidence of human hepatotoxicity
NC(N)=Nc1nc(CSCCC(N)=NS(N)(=O)=O)cs1 [FAMOTIDINE] | WE: Weak evidence (<10 case reports) of human hepatotoxicity
CC1(C)S[C@@H]2[C@H](NC(=O)Cc3ccccc3)C(=O)N2[C@H]1C(=O)[O-].[Na+] [PENICILLIN G SODIUM] | HH: Evidence of human hepatotoxicity
CCC[C@@H]1C[C@@H](C(=O)N[C@@H]([C@H]2O[C@H](SC)[C@H](O)[C@@H](O)[C@H]2O)[C@H](C)Cl)N(C)C1.Cl [CLINDAMYCIN HYDROCHLORIDE] | HH: Evidence of human hepatotoxicity
Cc1nc(C)c2c(n1)N(Cc1ccc(-c3ccccc3-c3nnn[nH]3)cc1)C(=O)CC2 [TASOSARTAN] | HH: Evidence of human hepatotoxicity
Clc1ccccc1C(c1ccccc1)(c1ccccc1)n1ccnc1 [CLOTRIMAZOLE] | WE: Weak evidence (<10 case reports) of human hepatotoxicity
C=C1CC[C@H](O)C/C1=C/C=C1\CCC[C@]2(C)[C@@H]([C@H](C)/C=C/[C@H](C)C(C)C)CC[C@@H]12 [ERGOCALCIFEROL] | NE: No evidence of hepatotoxicity in any species
CO[C@H]1C[C@H](O[C@H]2[C@H](C)[C@@H](O[C@@H]3O[C@H](C)C[C@H](N(C)C)[C@H]3OC(C)=O)[C@@H](C)C[C@@]3(CO3)C(=O)[C@H](C)[C@@H](OC(C)=O)[C@@H](C)[C@@H](C)OC(=O)[C@@H]2C)O[C@@H](C)[C@@H]1OC(C)=O [TROLEANDOMYCIN] | HH: Evidence of human hepatotoxicity
CC(=O)OCC1=C(C(=O)[O-])N2C(=O)[C@@H](NC(=O)Cc3cccs3)[C@H]2SC1.[Na+] [CEPHALOTHIN SODIUM] | HH: Evidence of human hepatotoxicity
NC1=NC(=O)C(c2ccccc2)O1 (stereo not drawn) [PEMOLINE] | HH: Evidence of human hepatotoxicity
CC[C@]1(O)C[C@@H]2CN(CCc3c([nH]c4ccccc34)[C@@](C(=O)OC)(c3cc4c(cc3OC)N(C)[C@H]3[C@@](O)(C(=O)OC)[C@H](OC(C)=O)[C@]5(CC)C=CCN6CC[C@]43[C@@H]65)C2)C1.O=S(=O)(O)O [VINBLASTINE SULFATE] | NE: No evidence of hepatotoxicity in any species
C[C@@H]1C[C@H]2[C@@H]3CCC4=CC(=O)C=C[C@]4(C)[C@@]3(Cl)[C@@H](O)C[C@]2(C)[C@@]1(OC(=O)c1ccco1)C(=O)CCl [MOMETASONE FUROATE] | NE: No evidence of hepatotoxicity in any species
COc1cc2c(c3oc(=O)c4c(c13)CCC4=O)[C@@H]1C=CO[C@@H]1O2 [AFLATOXIN] | HH: Evidence of human hepatotoxicity
C[C@]12C=CC(=O)C=C1CC[C@@H]1[C@@H]2C(=O)C[C@@]2(C)[C@H]1CC[C@]2(O)C(=O)CO [PREDNISONE] | WE: Weak evidence (<10 case reports) of human hepatotoxicity
C[C@@](Cc1ccc(O)c(O)c1)(NN)C(=O)O.O [CARBIDOPA] | NE: No evidence of hepatotoxicity in any species
NC[C@H]1O[C@H](O[C@H]2[C@H](O)[C@@H](O[C@H]3O[C@H](CO)[C@@H](O)[C@H](N)[C@H]3O)[C@H](N)C[C@@H]2N)[C@H](N)C[C@@H]1O [TOBRAMYCIN] | HH: Evidence of human hepatotoxicity
MERCURIC CHLORIDE | AH: Evidence for animal hepatotoxicity but not tested in humans
COc1cc(Cc2cnc(N)nc2N)cc(OC)c1OC [TRIMETHOPRIM] | HH: Evidence of human hepatotoxicity
CC(=O)O[C@]1(C(C)=O)CC[C@H]2[C@@H]3C=C(Cl)C4=CC(=O)[C@@H]5C[C@@H]5[C@]4(C)[C@H]3CC[C@@]21C [CYPROTERONE ACETATE] | AH: Evidence for animal hepatotoxicity but not tested in humans

Compound | Hepatotoxicity
NNC(=O)c1ccncc1 [ISONIAZID] | HH: Evidence of human hepatotoxicity
CCN(CC)CCNC(=O)c1cc(Cl)c(N)cc1OC.Cl | HH: Evidence of human hepatotoxicity
C1CCC(C(CC2CCCCN2)C2CCCCC2)CC1 (stereo not drawn) [PERHEXILINE] | HH: Evidence of human hepatotoxicity
O=C1CN(/N=C/c2ccc([N+](=O)[O-])o2)C(=O)N1 [NITROFURANTOIN] | HH: Evidence of human hepatotoxicity
OCCO [ETHYLENE GLYCOL] | AH: Evidence for animal hepatotoxicity but not tested in humans
C#C[C@]1(O)CC[C@H]2[C@@H]3CCc4cc(O)ccc4[C@H]3CC[C@@]21C [ETHINYL ESTRADIOL] | HH: Evidence of human hepatotoxicity
COCCOC(=O)C1=C(C)NC(C)=C(C(=O)OC(C)C)C1c1cccc([N+](=O)[O-])c1 (stereo not drawn) [NIMODIPINE] | HH: Evidence of human hepatotoxicity
C[C@H]1[C@H](NC(=O)/C(=N\OC(C)(C)C(=O)O)c2csc(N)n2)C(=O)N1S(=O)(=O)O [AZTREONAM] | NE: No evidence of hepatotoxicity in any species
CCC1(c2ccccc2)C(=O)NC(=O)N(C)C1=O (stereo not drawn) [MEPHOBARBITAL] | HH: Evidence of human hepatotoxicity
N#CC(C#N)=NNc1ccc(OC(F)(F)F)cc1 | AH: Evidence for animal hepatotoxicity but not tested in humans
CN(C)CCC(c1ccc(Cl)cc1)c1ccccn1.O=C(O)/C=C\C(=O)O (stereo not drawn) [CHLORPHENIRAMINE MALEATE] | HH: Evidence of human hepatotoxicity
Clc1ccc(CSC(Cn2ccnc2)c2ccc(Cl)cc2Cl)cc1.O=[N+]([O-])O (stereo not drawn) [SULCONAZOLE NITRATE] | NE: No evidence of hepatotoxicity in any species
NC(=O)c1ncn([C@@H]2O[C@H](CO)[C@@H](O)[C@H]2O)n1 [RIBAVIRIN] | WE: Weak evidence (<10 case reports) of human hepatotoxicity
CN[C@H]1CC[C@@H](c2ccc(Cl)c(Cl)c2)c2ccccc21 [SERTRALINE] | WE: Weak evidence (<10 case reports) of human hepatotoxicity
FERROUS SULFATE | NE: No evidence of hepatotoxicity in any species
C=C1CC[C@H](O)C/C1=C/C=C1\CCC[C@]2(C)[C@@H]([C@H](C)CCCC(C)(C)O)CC[C@@H]12.O [CALCIFEDIOL] | HH: Evidence of human hepatotoxicity
Cl.NC12CC3CC(CC(C3)C1)C2 [AMANTADINE HYDROCHLORIDE] | NE: No evidence of hepatotoxicity in any species
Clc1ccccc1CN1CCc2sccc2C1 [TICLOPIDINE] | HH: Evidence of human hepatotoxicity
NCCc1ccc(O)c(O)c1 [DOPAMINE] | NE: No evidence of hepatotoxicity in any species
C[C@]12CC[C@@H]3c4ccc(O)cc4CC[C@H]3[C@@H]1CC[C@@H]2O [ESTRADIOL] | WE: Weak evidence (<10 case reports) of human hepatotoxicity
C[C@H](CS)C(=O)N1CCC[C@H]1C(=O)O [CAPTOPRIL] | HH: Evidence of human hepatotoxicity
